Experiments:
Wistar Rats = assay: Novel object preference test in rats; assay type: in vivo, rat; details: for novel object preference: tested days after administration
Description: The effects of the test compound on cognitive functions in rodents, in particular on memory and learning capacity, were investigated using a novel object preference test (sometimes called “novel object recognition task”) according to the experimental design depicted in FIG. 1A. More specifically, the novel object preference test was carried out as follows:
Wistar Rats (outbred albino rats; Janvier Labs) sorted in different age groups, i.e. young (about 2 months), adult (about 9 months) and old (about 12-18 months), were administered with a saline solution (sodium chloride; 0.9% in water) or an aqueous solution of the test compound (LSD) by intraperitoneal injection (dose: 0.13 mg/kg).
Before the injection the animals were housed with other animals, and after the injection of the saline or test compound the animals were housed individually. For ten hours following the administration, the animals were video-recorded and stayed alone during the acute effects of the test compound (or saline). Then, the animals were allowed to recover for a period of 3 or 9 days.
After recovery, the animals were individually placed in an experiment arena (45×45×45 cm) once a day for 10 minutes over a period of 3 days (acclimatization session). The experiment arena as used herein typically includes two 3D printed bases located on the arena's floor 10 cm apart from each other, which are intended for mounting and fixing the test objects. However, said bases are empty during the acclimatization session.
Then, the 3D printed bases were mounted with the same number (i.e. 2) and type of objects (identical LEGO™ pieces each having 12 edges and 12 vertices). The animals were individually placed in the experiment arena and trained for 7 minutes (training session). At the onset of the training session, the animals were individually placed facing the same wall of the arena, with their backs to the objects.
The animals were removed from the arena and allowed to rest for 30 minutes. In the meantime, one of the objects was replaced by a new object having the same dimensions (height and base) as the previous object but a different shape (LEGO™ piece, 14 edges and 14 vertices). The animals were individually placed in the experiment arena for 3 minutes, and their preference for the novel object was evaluated by determining the time spent by the respective animals to explore the novel object (test session; FIG. 1B). At the onset of the test, the animals were individually placed facing the same wall of the arena, with their backs to the objects in a similar manner as during the training session.

Old animals (rats) = assay: Enriched environment test (LSD plus cognitive training) with novel object preference in old rats; assay type: in vivo, rat; details: 0.13 mg/kg for 1 day or 3 consecutive days, then enriched environment 6 days (3 h per day)
Description: The potential of the test compound combined with a cognitive training to rescue cognitive functions (called “enriched environment”) was evaluated in old animals according to the experimental design depicted in FIG. 3A. More specifically, the enriched environment test was carried out as follows:
Old animal (about 12-18 months) were administered with saline (control group) or 0.13 mg/kg of test compound (LSD) for 1 day or 3 consecutive days, followed by exposure to an enriched environment for 6 consecutive days (3 hours each day). The enriched environment used herein typically consists of card boxes with 8 different rooms, wherein it is possible to find a variety of objects such as PVC tubes, toilet paper cardboard tubes or wood objects so as to stimulate the exploratory behavior. The animals were allowed to explore the enriched environment freely in groups of 3 to 5 animals. The effects of the test compound followed by the enriched environment were analyzed using one-way ANOVA, followed by Tukey HSD. The statistical analyses were performed using open source programming language R (version 3.6.0). The Mann-Whitney U test was used to compare the performance of old animals exposed to the enriched environment to that of old animals treated with saline and unexposed to the enriched environment.

healthy human subjects = assay: Two-dimensional visuospatial location (memory) task in humans; assay type: in vivo; details: single oral dose 50 μg (one subject 67.5 μg), final recall about 24 h after learning
Description: The effects of the test compound (LSD) on cognitive functions in humans—e.g. memory, learning capacity—were investigated by means of a two-dimensional (2D) visuospatial location task in accordance with the experimental design depicted in FIG. 4A. Specifically, the visuospatial location task was carried out as follows:
Thirteen healthy human subjects learned the locations of 15 card pairs taking the test compound (LSD) or placebo in a two-run cross-over open-label design separated by two weeks. Seven subjects received 50 μg of test compound (orally) in the first run and placebo in the second run of the test. Six subjects received placebo in the first run and 50 μg of test compound (orally) in the second run of the test, except for one subject who received 67.5 μg of test compound in the second run. […]
For the two experimental runs, two parallel versions (versions A and B, respectively) of the task (matrix), each showing different pictures (card pairs) at different locations, were used. […] About 24 hours after the learning session, final recall of the memory task was evaluated in a single recall run (recall task). […] The percentage of correctly recalled card locations at final recall relative to the number of correct card locations during the last immediate recall run at learning was determined as the memory performance. […]

[1] = tested on: brain-derived neurotrophic factor (BDNF); assay: BDNF blood serum levels in healthy volunteers (ELISA); assay type: in vivo, human; details: for BDNF AUC levels compared to placebo / Peak BDNF levels: serum; for BDNF AUC levels compared to placebo: 0-6 h
Description: The present double-blind placebo-controlled, within-subjects study aimed to investigate whether low doses (0, 5, 10, and 20 mcg) of LSD affect brain-derived neurotrophic factor (BDNF) blood levels in healthy volunteers. Blood samples were collected every two hours over a six-hour period, and BDNF levels were determined afterwards in blood serum.
Twenty-four recreational psychedelic users were included in this study. Prior to inclusion, participants underwent medical screening including standard blood chemistry, hematology and urinalysis. Inclusion criteria were written informed consent; age 18-40 years; previous experience with a psychedelic drug, but not within the past three months; proficient knowledge of the English language; good physical health; free from psychotropic medication; BMI between 18-28 kg/m^2. Exclusion criteria were history of drug abuse or addiction as assessed using the DSM-IV criteria; history of psychiatric and neurological disorders; previous experience with serious side effects to psychedelic drugs (anxiety or panic attacks); cardiovascular abnormalities; hypertension; psychotic disorder in first-degree relatives; tobacco smoking (>20 cigarettes/day; excessive alcohol (>20 alcoholic consumptions/week); pregnancy or lactation.
LSD doses used were 5, 10, and 20 mcg LSD base. LSD doses were dissolved in ethanol (96% Vol) resulting in a 1 mL volume and the placebo solution consisted of 1 mL of ethanol only. Test days were scheduled with a minimum of five days in between doses. A test day started at 9:00 AM with a screen for the presence of drugs of abuse in urine (THC/opiates/cocaine/amphetamines/methamphetamines), and alcohol in breath. Women were submitted to a urine pregnancy test. When tests were negative, a venous catheter was placed to draw blood and LSD or placebo was administered orally at 10:00 AM. The study was conducted according to the code of ethics on human experimentation established by the declaration of Helsinki (1964) and the World Medical Association (2013).
Blood samples were taken at −0.5 h, +2 h, +4 h and +6 h relative to drug administration; samples were centrifuged, and serum was transferred into a clean tube and frozen subsequently at −20° C. until analysis. BDNF determination was assessed using an ELISA kit (Biosensis Mature BDNF Rapid ELISA kit: human, mouse, rat; Thebarton, Australia) as described by Akinomoto et al. in Behavioural Brain Research 2019, 359, 342-352.
Therefore, only complete within-subjects (WS) cases entered analyses, using the statistical program SPSS (version 25.0). Non-parametric bootstrapped paired-samples t-tests with trapezoidal calculated AUC's as dependent variable were used for 5 mcg (N=10), 10 mcg (N=9), and 20 mcg (N=8), and corresponding placebo. Furthermore, LSD-placebo contrasts were examined using BDNF serum levels at 0 h, +2 h, +4 h and +6 h after dose administration using non-parametric bootstrapped paired samples t-tests. Lastly, to examine time effects per dose, non-parametric bootstrapped repeated measures ANOVA (0 h, +2 h, +4 h, and +6 h) was used, with subsequent non-parametric bootstrapped paired samples t-tests.

Structure (SMILES): CCN(CC)C(=O)[C@@H]1C=C2c3cccc4[nH]cc(c34)C[C@H]2N(C)C1 [LSD, (D)-lysergic acid diethylamide]
- novel object preference (Wistar Rats; adult rats (about 9 months), 0.13 mg/kg i.p., saline baseline about 40%): about 60%
- novel object preference (effect vs saline) (Wistar Rats; adult rats, FIG. 2): significantly increased
- novel object preference (effect vs saline) (Wistar Rats; old rats (about 12-18 months), 0.13 mg/kg i.p.): not significant
- novel object preference (Wistar Rats; young rats (about 2 months), 0.13 mg/kg i.p., saline baseline about 60%): about 80%
- novel object preference (effect vs saline) (Wistar Rats; young rats, FIG. 2): significantly increased
- cognitive functions / novel object preference vs control group (Old animals (rats)): significant enhancement
- cognitive functions / novel object preference vs control group (Old animals (rats); listed as test compound): significant increase
- performance in the 2D visuospatial location task vs placebo (healthy human subjects): significantly improved
- performance in the 2D visuospatial location task vs placebo (healthy human subjects; listed as test compound): significantly increased
- BDNF AUC levels compared to placebo ([1]; 5 mcg LSD oral, Z=−2.29, p=0.02): significantly increased
- Peak BDNF levels ([1]; 5 mcg LSD, peak at four hours after administration): 8.95 ng/mL
- BDNF AUC levels compared to placebo ([1]; 10 mcg LSD oral, Z=−2.67, p<0.01): significantly increased
- Peak BDNF levels ([1]; 10 mcg LSD, peak at six hours after administration): 8.28 ng/mL
- BDNF AUC levels compared to placebo ([1]; 20 mcg LSD oral, Z=−2.52, p<0.01): significantly increased
- BDNF levels compared to placebo ([1]; +4 h after 5 mcg LSD, Z=−2.80, p<0.01): higher
- BDNF levels compared to placebo ([1]; +4 h after 10 mcg LSD, Z=−1.95, p=0.05): higher
- BDNF levels compared to placebo ([1]; +6 h after 5 mcg LSD, Z=−2.29, p<0.01): higher
- BDNF levels compared to placebo ([1]; +6 h after 20 mcg LSD, Z=−2.52, p=0.01): higher

From patent publication US12295951B2, “Compounds for use in a method of treating or preventing neurological and/or psychiatric disorders” (The Beckley Foundation, priority 2019, dated 2025)
